The results in this text go back to PMC11024012, “Design, synthesis, and biochemical and computational screening of novel oxindole derivatives as inhibitors of Aurora A kinase and SARS-CoV-2 spike/host ACE2 interaction” (Medicinal Chemistry Research, 2024).

The target of assay [1] is T1, SARS-CoV-2 Spike RBD/ACE2 (Homo sapiens, UniProt Q9BYF1).
T1 construct: 5 nM HIS-tagged SARS-CoV-2 Spike-RBDs; purchased Sino Biological
Kind of assay: biochemical. Format: binding, SARS-CoV-2 (Wuhan / USA-WA/2020 wild-type) spike; human ACE2. Conditions: for inhibition at 32 µM: read-out: Spike RBD/ACE2 Percent block at 32 μM.

A further assay has as its target T2, Aurora A kinase (Homo sapiens, UniProt O14965).
T2 sequence (O14965 1-403): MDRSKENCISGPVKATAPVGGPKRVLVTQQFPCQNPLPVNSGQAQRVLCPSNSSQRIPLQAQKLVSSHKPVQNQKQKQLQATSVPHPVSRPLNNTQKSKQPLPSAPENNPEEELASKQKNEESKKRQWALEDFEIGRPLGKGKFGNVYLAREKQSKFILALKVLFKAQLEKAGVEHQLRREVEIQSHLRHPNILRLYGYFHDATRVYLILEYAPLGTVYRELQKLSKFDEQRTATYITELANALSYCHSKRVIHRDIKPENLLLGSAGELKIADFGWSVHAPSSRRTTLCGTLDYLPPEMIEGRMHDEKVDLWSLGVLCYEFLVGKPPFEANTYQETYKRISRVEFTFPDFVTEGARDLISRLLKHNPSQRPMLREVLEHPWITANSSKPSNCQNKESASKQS
Put plainly: Aurora A kinase inhibition assay (HTRF kinase assay / Z′-LYTE Kinase Assay Kit ser/thr 01 peptide). Type of assay: biochemical. Conditions: for inhibition at 32 µM: 32 μM compound, read-out: Aurora A Kinase Percent block at 32 μM; for IC50: ATP 500 μM, Aurora A kinase 2.7–4.7 nM. The protocol: The activities of the synthesized compounds were evaluated using Invitrogen Z′-LYTE® Kinase Assay Kitser/thr 01 peptide. The bioassay was performed using Aurora A kinase at an optimum concentration of 2.7–4.7 nM and ATP at a concentration of 500 μM. Stock solutions of molecules were prepared at 10 mM in DMSO, and then serially diluted in buffer solution to yield final hit concentrations ranging from 0.01 μM to 100 μM. […] The percentage of inhibition and IC50 value were calculated using nonlinear regression of the log (concentration) vs inhibition percentage values using GraphPad Prism 7.04.
On the technique in general: Time-resolved FRET reads energy transfer from a long-lived donor to a nearby acceptor.

Values joined by “and” are separate entries in the source; they are usually repeats but may differ in a detail not shown here. Equal values may be shown once. Read-outs that look alike come from different tables or passages of the source.

T1 sequence (Q9BYF1 18-740): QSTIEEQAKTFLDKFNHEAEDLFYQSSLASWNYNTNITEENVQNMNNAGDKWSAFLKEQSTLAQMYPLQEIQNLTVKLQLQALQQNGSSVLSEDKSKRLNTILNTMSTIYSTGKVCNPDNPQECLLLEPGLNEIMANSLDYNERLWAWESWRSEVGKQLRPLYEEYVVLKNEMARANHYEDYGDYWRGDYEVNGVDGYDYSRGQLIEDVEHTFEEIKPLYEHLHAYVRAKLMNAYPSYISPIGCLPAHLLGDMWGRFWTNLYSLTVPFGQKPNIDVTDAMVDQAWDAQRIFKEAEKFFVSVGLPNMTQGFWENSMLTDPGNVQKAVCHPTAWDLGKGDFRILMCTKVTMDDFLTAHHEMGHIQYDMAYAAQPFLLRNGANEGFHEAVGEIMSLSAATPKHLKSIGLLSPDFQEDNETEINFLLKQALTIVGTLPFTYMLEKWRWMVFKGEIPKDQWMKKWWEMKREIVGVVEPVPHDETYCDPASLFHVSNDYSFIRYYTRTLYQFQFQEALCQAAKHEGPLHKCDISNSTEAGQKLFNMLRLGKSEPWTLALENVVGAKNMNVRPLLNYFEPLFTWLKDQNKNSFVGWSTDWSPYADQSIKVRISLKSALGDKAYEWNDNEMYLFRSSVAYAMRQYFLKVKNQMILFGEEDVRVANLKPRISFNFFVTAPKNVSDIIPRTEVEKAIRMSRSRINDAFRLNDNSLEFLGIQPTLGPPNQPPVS

For `CC(=O)Nc1ccc2c(c1)C1(OCC(C)(C)CO1)C(=O)N2` [Compound 4a, N-(5’,5’-dimethyl-2-oxospiro[indoline-3,2’-[1,3]dioxan]-5-yl)acetamide], the results for the inhibition at 32 µM (in assay [1]; at Aurora A kinase) were 0% and 9.1 ± 6.5%, respectively.
On to `CC1(C)COC2(OC1)C(=O)Nc1ccc(NC(=O)Cc3ccc(Cl)cc3)cc12` [Compound 4b, 2-(4-chlorophenyl)-N-(5’,5’-dimethyl-2-oxospiro[indoline-3,2’-[1,3]dioxan]-5-yl)acetamide], for which the figures for the inhibition at 32 µM (in assay [1]; at Aurora A kinase) were 20.1 ± 11.5% and 20.9 ± 6.3%, respectively.
For `CC1(C)COC2(OC1)C(=O)Nc1ccc(NC(=O)CCN3CCOCC3)cc12` [Compound 4c, N-(5’,5’-dimethyl-2-oxospiro[indoline-3,2’-[1,3]dioxan]-5-yl)-3-morpholinopropanamide], in that order: 2 ± 2.9% and 1.6 ± 2.1%.
Regarding `CC1(C)COC2(OC1)C(=O)Nc1ccc(NC(=O)c3ccc(Cl)cc3)cc12` [Compound 4d, 4-chloro-N-(5’,5’-dimethyl-2-oxospiro[indoline-3,2’-[1,3]dioxan]-5-yl)benzamide], the inhibition at 32 µM in assay [1] is 22.5 ± 5.7%; on Aurora A kinase, 17.8 ± 9.2%.
As to `CC(=O)Nc1ccc2c(c1)/C(=N\Nc1ccc(C)cc1)C(=O)N2` [Compound 6a, (E)-N-(2-oxo-3-(2-(p-tolyl)hydrazineylidene)indolin-5-yl)acetamide], the results for the inhibition at 32 µM (in assay [1]; on Aurora A kinase) were 21.5 ± 4.8% and 82.7 ± 2.7%, respectively. The compound further had an IC50 against Aurora A kinase of 0.8 ± 0.1 µM.
As for `CC(=O)Nc1ccc2c(c1)/C(=N\Nc1ccc(Cl)cc1Cl)C(=O)N2` [Compound 6b, (E)-N-(3-(2-(2,4-dichlorophenyl)hydrazineylidene)-2-oxoindolin-5-yl)acetamide], the inhibition at 32 µM in assay [1] came out at 21.5 ± 6.2%; at Aurora A kinase, 26.4 ± 0.6%.
Take `CC(=O)Nc1ccc2c(c1)/C(=N\Nc1ccncc1)C(=O)N2` [Compound 6c, (E)-N-(2-oxo-3-(2-(pyridine-4-yl)hydrazineylidene)indolin-5-yl)acetamide]: in assay [1], the inhibition at 32 µM was 5.2 ± 4.1%. At Aurora A kinase, the inhibition at 32 µM is 58.1 ± 1.7% and the IC50 is 5.5 ± 0.5 µM.
Consider `Cc1ccc(N/N=C2/C(=O)Nc3ccc(NC(=O)Cc4ccc(Cl)cc4)cc32)cc1` [Compound 6d, (E)-2-(4-chlorophenyl)-N-(2-oxo-3-(2-(p-tolyl)hydrazineylidene)indolin-5-yl)acetamide], for which the inhibition at 32 µM in assay [1] came to 3.2 ± 0.4%. Also, on Aurora A kinase, the inhibition at 32 µM turned out to be 54.2 ± 6.7% and the IC50 turned out to be 22.8 ± 7.9 µM.
As to `O=C(Cc1ccc(Cl)cc1)Nc1ccc2c(c1)/C(=N\Nc1ccc(Cl)cc1Cl)C(=O)N2` [Compound 6e, (E)-2-(4-chlorophenyl)-N-(3-(2-(2,4-dichlorophenyl)hydrazineylidene)-2-oxoindolin-5-yl)acetamide], the inhibition at 32 µM in assay [1] stood at 10.4 ± 12.1%; at Aurora A kinase it was 10 ± 4.9%.
For the compound `O=C(Cc1ccc(Cl)cc1)Nc1ccc2c(c1)/C(=N\Nc1ccc(C(F)(F)F)cc1)C(=O)N2` [Compound 6f, (E)-2-(4-chlorophenyl)-N-(2-oxo-3-(2-(4(trifluoromethyl)phenyl)hydrazineylidene)indolin-5-yl)acetamide], the inhibition at 32 µM is 27.1 ± 3.9% in assay [1] and 87.8 ± 2.9% at Aurora A kinase. Also, the IC50 against Aurora A kinase came to 1.8 ± 0.2 µM.
Turning to `O=C(CCN1CCOCC1)Nc1ccc2c(c1)/C(=N\Nc1ccc(Cl)cc1Cl)C(=O)N2` [Compound 6h, (E)-N-(3-(2-(2,4-dichlorophenyl)hydrazineylidene)-2-oxoindolin-5-yl)-3-morpholinopropanamide], the values for the inhibition at 32 µM (in assay [1]; on Aurora A kinase) were 21.3 ± 5.6% and 10.3 ± 7.1%, respectively.
`O=C(CCN1CCOCC1)Nc1ccc2c(c1)/C(=N\Nc1ccc(C(F)(F)F)cc1)C(=O)N2` [Compound 6i, (E)-3-morpholino-N-(2-oxo-3-(2-(4(trifluoromethyl)phenyl)hydrazineylidene)indolin-5-yl)propanamide]: the IC50 in assay [1] (Spike RBD/ACE2 IC50) was 12.1 ± 2.9 µM; in assay [1] (read-out: Spike RBD/ACE2 IC50), < 30 µM and 22.4 µM; against Aurora A kinase, 4.8 ± 0.3 µM. The figures for the inhibition at 32 µM (in assay [1]; at Aurora A kinase) were 64.5 ± 9% and 79.3 ± 1.5%, respectively.
Take `Cc1ccc(N/N=C2/C(=O)Nc3ccc(NC(=O)c4ccc(Cl)cc4)cc32)cc1` [Compound 6j, (E)-4-chloro-N-(2-oxo-3-(2-(p-tolyl)hydrazineylidene)indolin-5-yl)benzamide]: the inhibition at 32 µM in assay [1] came to 2.8 ± 4%; on Aurora A kinase, 13.2 ± 8.2%.
Take `O=C1Nc2ccc(NC(=O)c3ccc(Cl)cc3)cc2/C1=N\Nc1ccc(Cl)cc1Cl` [Compound 6k, (E)-4-chloro-N-(3-(2-(2,4-dichlorophenyl)hydrazineylidene)-2-oxoindolin-5-yl)benzamide]: the inhibition at 32 µM in assay [1] stood at 34.4 ± 20.4%; at Aurora A kinase, 13.4 ± 14.6%.
Taken in the same sequence, the figures for `O=C1Nc2ccc(NC(=O)c3ccc(Cl)cc3)cc2/C1=N\Nc1ccc(C(F)(F)F)cc1` [Compound 6l, (E)-4-chloro-N-(2-oxo-3-(2-(4(trifluoromethyl)phenyl)hydrazineylidene)indolin-5-yl)benzamide] were 44.2 ± 9% and 19.4 ± 13.5%.
For `O=C1Nc2ccc(NC(=O)c3ccc(Cl)cc3)cc2/C1=N\Nc1ccncc1` [Compound 6m, (E)-4-chloro-N-(2-oxo-3-(2-(pyridine-4-yl)hydrazineylidene)indolin-5-yl)benzamide], the inhibition at 32 µM in assay [1] was determined as 0%. In addition, on Aurora A kinase, the inhibition at 32 µM was 80.2 ± 1.2% and the IC50 amounted to 3.1 ± 1.3 µM.
Taken in the same sequence, the figures for `CCS(=O)(=O)Nc1ccc2c(c1)/C(=C(/Nc1ccc(CN3CCCCC3)cc1)c1ccccc1)C(=O)N2` [Hesperadin, reference compound] were 43.3 ± 10.6%, 93.8 ± 0.8% and 0.0053 ± 0.0027 µM.
For Hopeaphenol [reference compound], in assay [1], the “Spike RBD/ACE2 Percent block at 32 μM” value stood at 83.6 ± 2.0%. Also, in assay [1] (read-out: Spike RBD/ACE2 IC50), the IC50 is 0.3 ± 0.1 µM.
